Experimental data from paper PMC10350923, “In Vitro and In Vivo Biological Activities of Dipicolinate Oxovanadium(IV) Complexes” (Journal of Medicinal Chemistry, 2023).
Where “and” joins values, the source holds several entries; their conditions need not be identical. Equal values may be shown once. Entries after “also recorded” stand apart in the source; their conditions may differ. Read-outs that look alike come from different tables or passages of the source.

Tests used:
[1] = Stability and solubility in RPMI culture medium, UV-vis; format: physicochemical; settings: UV-vis at 0, 24, 48 h
[2] = tested on: HCT116-DoxR cells; test: Alexa Fluor 488-annexin V/PI apoptosis assay, flow cytometry; format: cell-based, human; settings: 48 h; for increase of percentage of apoptotic cells normalized to DMSO: IC50; for early apoptosis / late apoptosis / necrosis / percentage of apoptosis (total) / viable cells: complexes at IC50, cisplatin 5 μM, Dox 6 μM
[3] = target: T1, BSA (bovine serum albumin) (Bos taurus, UniProt P02769); test: BSA binding, UV-vis and fluorescence spectroscopy; settings: for BSA fluorescence with increasing complex concentrations: BSA 20 μM, complexes 10-100 μM, pH 7.0, 24 h, 37 °C; for interaction with BSA protein: UV-vis and fluorescence spectroscopy
T1 construct: I (1–195), II (196–383), and III (384–583)

[4] = tested on: HCT116-DoxR cells; test: Autophagy induction, Green Detection Reagent, flow cytometry; settings: 48 h, complexes at IC50, cisplatin 5 μM, Dox 6 μM
[5] = tested on: chick chorioallantoic membrane; test: Ex ovo chick chorioallantoic membrane (CAM) assay, angiogenesis; format: in vivo, chicken; settings: chick embryo CAM; for anti-/pro-angiogenic potential, newly formed blood vessels, 48 h: IC50, 48 h
Text: The ex ovo CAM assay was used to evaluate the role of vanadium complexes in the process of angiogenesis. CAM is a chicken extraembryonic membrane and is often used to study the process of angiogenesis in vivo as it has a high density of blood and lymphatic vessels.[120] This assay consists of analyzing certain vascularized areas of the chorioallantoic membrane of a chicken embryo. Initially, o-rings are placed covering those membrane vascularized areas being then exposed to the complexes. Pictures are then taken at 0, 24, and 48 h after exposure to the complexes and the number of blood vessels present at each hour are counted and compared. The results can be observed in Figure 15.
Ex-ovo Chick Chorioallantoic Membrane (CAM) assay
The ex-ovo chorioallantoic membrane (CAM) assay was performed in order to evaluate the angiogenic potential of vanadium complexes, as already described in literature11–13. Firstly, chicken embryos were […]
concentration of each complex dissolved in PBS 1x was placed in the centre of O-rings. Beside each complex, DMSO 0.1% (v/v) was used as a control and complex distribution in chicken embryos was always performed in a different order. The embryos were incubated for 48 h at 37 °C and images were […]
Newly formed blood vessels were later manually counted, via ImageJ software.
The ex-ovo CAM assay fulfils the Directive 2010/63/ EU of the European Parliament for protection of animal models for scientific purposes.
All data are presented as Mean ± SEM from at least two independent experiments unless otherwise specified. One-way ANOVA or Student’s t-test were used to determine statistical significance (p < 0.05) using the GraphPad Prism 8 software (GraphPad Software, San Diego, CA, USA).

[6] = tested on: normal human primary dermal fibroblasts; test: MTS cell viability assay, fibroblasts; settings: read-out: IC50 fibroblasts; 48 h of exposure, MTS, mean ± SEM
Experimental: (§13) To assess the cytotoxicity of vanadium complexes in tumor and healthy cells, the MTS assay, a colorimetric method that allows the quantification of viable cells present in solution,[71] was performed.
Cell culture and maintenance
(§14) The A2780 cancer cell line (ovarian carcinoma) was purchased from Sigma-Aldrich (Madrid, Spain)
(§15) while HCT116 cancer cell line (colorectal carcinoma) and the normal human primary dermal
(§16) fibroblasts were obtained from American Type Culture Collection (ATCC®, Manassas, VA, USA).
(§17) HCT116 Dox-resistant cell line (HCT116-DoxR) was derived from HCT116 parental cells, as
(§18) All cells were cultured in Dulbecco’s modified Eagle medium (DMEM), except the A2780 cell line
(§19) which was cultured in RPMI (Roswell Park Memorial Institute) medium. Both media were
(§20) supplemented with 10% (v/v) fetal bovine serum (FBS) and 1% (v/v) of a Pen/Strep
(§21) (Penicillin/Streptomycin) solution. HCT116-DoxR cell medium was additionally supplemented with
(§22) All media and supplements were purchased from Thermo Fischer Scientific (Waltham, Massachusetts, USA).
(§23) (SANYO CO2 Incubator, Electric Biomedical Co., Osaka, Japan).
(§24) HCT116, HCT116-DoxR and A2780 cancer cell lines and normal human primary fibroblasts were
(§25) used in cellular viability assays. Cells were seeded in a density of 0.75×10^5 cells/mL into 96 well-
(§26) After the 24 h of incubation, complexes were
(§27) weight and immediately solubilized in 100% (v/v) DMSO and then, diluted for the final concentration
(§28) with cell culture medium. The medium in each 96 well-plates will be replaced by fresh medium
(§29) containing each vanadium complex (concentrations ranging from 0.01 µM to 50 µM). Culture medium
(§30) with 0.1% (v/v) DMSO and 0.4 µM Dox were used as negative and positive controls, respectively.

[7] = tested on: HCT116-DoxR spheroids; test: MTS assay in 3D spheroids; format: cell-based, human; settings: HCT116-DoxR spheroids 6- to 8-day-old, 48 h
[8] = tested on: A2780 (ovarian carcinoma cell line); test: MTS cell viability assay, A2780; format: cell-based, human; settings: 48 h of exposure, mean ± SEM
[9] = tested on: HCT116-DoxR (doxorubicin-resistant colorectal carcinoma cell line); test: MTS cell viability assay, HCT116-DoxR;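 also: MTS colorimetric quantification of viable cells, with loss of viability tracked as complex concentration rises, in DMEM-grown HCT116-DoxR, a line whose resistance involves P-glycoprotein efflux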
Experimental: as §13
Cell culture and maintenance
as §14, §15, §16, §17, §18, §19, §20, §21, §22, §23, §24, §25, §26, §27, §28, §29, §30

[10] = n-octanol/PBS buffer partition coefficient, shake-flask, UV-vis; settings: room temperature
Experimental: The lipophilicity of V(IV) complexes was investigated using the classical shake-flash method at room temperature in the two-phase system of immiscible solvents n-octanol/PBS buffer.[69],[70] The transfer of V(IV) compounds from the aqueous environment to the organic phase was monitored by UV–vis spectroscopy.
The n-octanol/PBS buffer partition coefficients (logP) were determined by shake-flash approach, and
the transfer of V(IV) compounds from the aqueous environment to the organic phase was monitored
by UV-Vis spectroscopy5,6. Solutions of 1–10 of concentrations in the range 10-100 M were prepared
in PBS buffer saturated with n-octanol from the freshly-prepared stock solution in DMSO (5mM or 50
mM), and their UV-Vis spectra were recorded. The solution of 1–10 in aqueous buffer (3 ml) were
mixed with n-octanol saturated with pH 7.4 aqueous buffer (3 ml), and the obtained mixtures were
stirred in a mechanical shaker for 30 min. The mixtures were allowed to stand at room temperature for
24 h, and after this time, the aqueous phases were separated, and the concentrations of 1–10 were
determined by measuring their UV-Vis spectra. For each complex, the highest energy absorption band was taken into consideration to determine the sample concentration.

[11] = tested on: fibroblasts; test: Cell migration (wound healing) assay; format: cell-based, human; settings: 24 h, IC50
Experimental: In the wound healing assay, a region without cells is generated, being then exposed to the compounds, and the cell migration is analyzed after 24 h, to determine the cells’ ability to proliferate and refill the gap previously formed (Figure 14).[116]
(§1) finishing the 48 h period.
(§2) Attune® Cytometric software.
(§3) Butyl hydroperoxide) were used as controls.
(§4) Cells were later analysed
(§5) (double thymidine block).
(§6) After this, the pellet was resuspended in
Control solutions were also prepared, namely a
DMSO only. […] The UV-Vis spectra were […]

[12] = tested on: HCT116-DoxR cells; test: ROS production, H2DCF-DA, flow cytometry; format: cell-based, human; settings: 48 h, IC50
Experimental: Thus, the level of ROS present in HCT116-DoxR cells after their exposure to vanadium complexes was quantified (Figure 10). The probe 2′,7′-dichlorohydrofluorescein diacetate (H2DCF-DA), which diffuses into cells and is deacetylated by cellular esterases resulting in a nonfluorescent compound, was used. Inside the cell, this molecule is oxidized by ROS and then originates the fluorescent molecule 2′,7′-dichlorofluorescein (DCF) that can be detected by flow cytometry.[103]
as §1, §2, §3, §4, §5, §6
Control solutions were also prepared, namely a […]

[13] = tested on: HCT116 (colorectal carcinoma cell line); test: MTS cell viability assay, HCT116; format: cell-based, human; settings: 48 h of exposure, mean ± SEM
[14] = tested on: HCT116-DoxR cells; test: Cell internalization by ICP-AES; format: cell-based, human; settings: 3 h exposure to 10x IC50, ICP-AES
[15] = tested on: caspase-8; test: Caspase-8 activity, IETD-pNA cleavage; format: cell-based, human; settings: HCT116-DoxR, 48 h; complexes at IC50, cisplatin 5 μM
Experimental: Since caspase-8 is an initiator caspase of the extrinsic apoptotic pathway, its activity was evaluated after HCT116-DoxR cells were exposed to complexes 5 and 8 (Figure 8).
The chromogenic substrate IETD-pNA, which results from the conjugation between the peptide IETD (Ile-Glu-Thr-Asp) and the chromophore p-nitroanilide (pNA), is cleaved by caspase-8 and releases pNA, which can be detected by measuring absorbance at 400 nm.[99] Therefore, if complexes 5 and 8 induce cell death through the extrinsic apoptotic pathway, there is an increase in absorbance at 400 nm compared to the control sample, corresponding to an increase in caspase-8 activity that is translated into the cleavage of the substrate IETD-pNA (Figure 8).
(§7) Antibody; Cell Signalling Technology, USA).
(§8) Assay Kit (Abnova Corporation, Walnut, CA, USA).
(§9) vanadium complexes at its IC50 concentrations.
(§10) Cells were then incubated
(§11) Flow Cytometer (Life Technologies, Carlsbad, USA).
(§12) HCT116-DoxR cell line was cultivated

[16] = tested on: HCT116-DoxR cells; test: Cell cycle progression, PI, flow cytometry; settings: HCT116-DoxR, 3, 9, 24, 32 h; complexes at IC50, cisplatin 5 μM, Dox 6 μM
[17] = tested on: BCL-2; test: Western blot, BCL-2 expression; format: cell-based, human; settings: HCT116-DoxR, 48 h, IC50, normalized to β-actin
[18] = tested on: HCT116-DoxR cells; test: Mitochondrial membrane potential, JC-1, flow cytometry; format: cell-based, human; settings: 48 h, complexes at IC50, cisplatin 5 μM, Dox 6 μM
Text: The use of the fluorescent probe JC-1 (5,5,6,6′-tetrachloro-1,1′,3,3′ tetraethylbenzimidazolcarbocyanine iodide) allows the evaluation of ΔΨm, as the aggregation of the probe changes whether the mitochondrial membrane is hyperpolarized or depolarized.[95],[96] In healthy cells with high mitochondrial potential, JC-1 enters and accumulates inside mitochondria, where it forms complexes known as J-aggregates, emitting red fluorescence. However, in cells with a loss of ΔΨm, JC-1 is unable to remain in the mitochondria and exits to the cytoplasm, accumulating in its monomeric form and emitting green fluorescence. Thus, the ratio of the red/green fluorescence intensities can be used to indicate polarization (ratio > 1) or depolarization (ratio < 1) of the mitochondrial membrane (Figure 7).[94],[95]
as §7, §8, §9, §10, §11, §12

[19] = tested on: BAX; test: Western blot, BAX expression; format: cell-based, human; settings: HCT116-DoxR, 48 h; for BAX/BCL-2 ratio normalized to DMSO control: IC50; for BAX protein expression vs DMSO control: IC50, normalized to β-actin
[20] = tested on: cleaved PARP1; test: Western blot, cleaved PARP1 expression; format: cell-based, human; settings: HCT116-DoxR, 48 h, IC50
[21] = read-out: IC50 2D, HCT116-DoxR 2D culture, 48 h
[22] = read-out: IC50 HCT116-DoxR, 48 h of exposure, MTS, mean ± SEM

T1 sequence (P02769 25-607): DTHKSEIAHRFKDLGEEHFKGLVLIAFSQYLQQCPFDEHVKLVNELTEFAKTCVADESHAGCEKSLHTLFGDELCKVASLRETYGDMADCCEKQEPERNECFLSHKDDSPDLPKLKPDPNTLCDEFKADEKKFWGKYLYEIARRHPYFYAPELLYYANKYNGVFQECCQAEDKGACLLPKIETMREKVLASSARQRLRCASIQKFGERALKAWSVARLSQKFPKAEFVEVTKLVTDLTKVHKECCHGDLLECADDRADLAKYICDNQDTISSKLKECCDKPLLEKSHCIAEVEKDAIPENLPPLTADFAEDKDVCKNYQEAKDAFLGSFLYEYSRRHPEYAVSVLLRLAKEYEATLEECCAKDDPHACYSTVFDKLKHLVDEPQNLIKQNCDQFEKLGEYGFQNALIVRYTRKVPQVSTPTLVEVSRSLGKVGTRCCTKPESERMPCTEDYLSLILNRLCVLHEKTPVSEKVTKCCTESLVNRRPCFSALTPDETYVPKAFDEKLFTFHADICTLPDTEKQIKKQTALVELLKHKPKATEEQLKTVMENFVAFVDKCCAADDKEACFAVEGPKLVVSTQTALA

SMILES	stability in RPMI culture medium [1]	increase of percentage of apoptotic cells normalized to DMSO [2] [fold]	early apoptosis [2] [%]	late apoptosis [2] [%]	necrosis [2] [%]	percentage of apoptosis (total) [2]	viable cells [2] [%]	BSA fluorescence with increasing complex concentrations [3]	interaction with BSA protein [3]	increase of autophagic vesicles over the control [4] [fold]	anti-/pro-angiogenic potential, newly formed blood vessels, 48 h [5]	IC50 [6] [µM]	IC50 [7] [µM]	IC50 [8] [nM]	IC50 [9, 21] [nM]	IC50 [9, 22] [nM]	log P [10]	cell migration (wound remission) [11]	IC50 [13] [nM]	caspase-8 activity vs 0.1% DMSO [15]	further results
O=C1[O][V](=[O])[O]C(=O)c2cccc1n2.c1cnc2c(c1)ccc1cccnc12 [complex 8, [VO(dipic)(phen)]]	no spectral changes over time	1.7	44.8 ± 6.2	4.5 ± 2.1	0.9 ± 0.6	about 50%	49.8 ± 6.0	high decrease in BSA fluorescence	capable of interacting	~2.3	no anti-/pro-angiogenic potential	8.6 ± 0.02	11.7 ± 0.62	2100 ± 30	1300 ± 40	1300 ± 40	0.40	do not promote cell migration	3700 ± 10	higher level of caspase-8	ROS production, increase over the DMSO control [12]: 2.4 fold; Concentration in cells [14]: 6.705 µM
O=C1[O][V](=[O])[O]C(=O)c2cccc1n2.c1ccc(-c2ccnc3c2ccc2c(-c4ccccc4)ccnc23)cc1 [complex 6, [VO(dipic)(4,7-Ph2-phen)]]	no spectral changes over time	2.5	57.7 ± 5.8	13.4 ± 5.9	1.2 ± 0.9	about 70%	27.7 ± 7.9	high decrease in BSA fluorescence	capable of interacting	~2.3	no longer present; also recorded: no anti-/pro-angiogenic potential	4 ± 0.05	3.1 ± 0.42	200 ± 90	200 ± 50	200 ± 50	0.57	do not promote cell migration	900 ± 30	not detected	solubility in RPMI culture medium over time [1]: loss of solubility over time; cell cycle arrest / cytostatic effect [16]: no cell cycle arrest; anti-angiogenic potential, newly formed blood vessels, 24 h ([5]; IC50, 24 h): some anti-angiogenic potential; BCL-2 protein expression vs DMSO control [17]: decrease; JC-1 red/green fluorescence intensity ratio normalized to DMSO [18]: ~0.69; BAX/BCL-2 ratio normalized to DMSO control [19]: ~3; BAX protein expression vs DMSO control [19]: increase; ROS production, increase over the DMSO control [12]: 2.6 fold; increase in expression of cleaved PARP1 vs 0.1% DMSO [20]: 8 fold; Concentration in cells [14]: 1.672 µM; Internalized percentage [14]: 98.32% and ~100%
N.N.[Cl][Pt][Cl] [cisplatin, reference compound]			31.9 ± 4.6	10.0 ± 4.2	1.6 ± 0.7	~40%				~2.3				1900 ± 200					15600 ± 5300	higher level of caspase-8	cell cycle arrest / cytostatic effect [16]: cytostatic effect
COc1ccnc2c1ccc1c(OC)ccnc12.O=C1[O][V](=[O])[O]C(=O)c2cccc1n2 [complex 5, [VO(dipic)(4,7-(CH3O)2-phen)]]	no structural changes	2.5	59.4 ± 3.6	11.5 ± 5.0	0.8 ± 0.6	about 70%	28.3 ± 3.5	high decrease in BSA fluorescence	capable of interacting	~2.3	no anti-/pro-angiogenic potential	3.1 ± 0.07	3.5 ± 0.2	1300 ± 10	200 ± 100	200 ± 100	0.55	do not promote cell migration	1800 ± 40	higher level of caspase-8	cell cycle arrest / cytostatic effect [16]: no cell cycle arrest; BCL-2 protein expression vs DMSO control [17]: increased expression; BAX/BCL-2 ratio normalized to DMSO control [19]: ~1; BAX protein expression vs DMSO control [19]: increased expression; ROS production, increase over the DMSO control [12]: 2.5 fold; increase in expression of cleaved PARP1 vs 0.1% DMSO [20]: 5 fold; Concentration in cells [14]: 1.590 µM; Internalized percentage [14]: 98.55% and ~100%
